According to patent EP1981504B1, “THIADIAZOLE DERIVATIVES FOR THE TREATMENT OF NEURO DEGENERATIVE DISEASES” (NV reMYND, priority 2006, dated 2007):
In brackets after ≈: the same amount, converted by molar mass.

Test system: M17-SYNwt cells
Assay: α-synuclein cytotoxicity assay (LDH leakage from paraquat-treated α-synuclein over-expressing neuroblastoma cells)
Assay type: cell-based, human
Conditions: paraquat 32 mM, 40 hours, LDH release; for EC50: Homo sapiens, Neuroblastoma cell; for %I: percent inhibition of synuclein cytotoxicity at most effective concentration of test compound, relative to untreated paraquat cells
In short: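 M17 neuroblastoma cells over-expressing wild-type α-synuclein were challenged with paraquat, and cytotoxicity was read as LDH release. Protection was expressed as percent reduction of paraquat-induced LDH release relative to untreated paraquat cells and control cells. Actives were retested in 10-point duplicate dose responses.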

Compound | EC50 (10 point curves in duplicate) [µg/mL] | %I [%] | EC50 (µg/mL) (10 point curves in duplicate)
CC1CN(c2nc(Cc3ccc(F)cc3)ns2)CCN1C(=O)c1ccc(C(C)(C)C)cc1 (centres unmarked) [Compound 128, 1-(4-tert-butylbenzoyl)-4-[3-(4-fluorobenzyl)-1,2,4-thiadiazol-5-yl]-2-methylpiperazine] | 0.24 (≈ 0.53 µM) | 95 | –
CC1CN(c2nc(Cc3ccccc3)ns2)CCN1C(=O)c1ccc(F)cc1 (centres unmarked) [Compound 154, 1-(4-fluorobenzoyl)-4-[3-benzyl-1,2,4-thiadiazol-5-yl]-2-methylpiperazine] | 1.58 (≈ 3.98 µM) | 75 | –
O=C(c1ccc2c(c1)OCO2)N1CCCN(c2nc(Cc3ccc(F)cc3)ns2)CC1 [Compound 191, 1-(1,3-benzodioxol-5-ylcarbonyl)-4-[3-(4-fluorobenzyl)-1,2,4-thiadiazol-5-yl]-1,4-diazepane] | – | 63 | –
Cc1ccc(Cc2nsc(N3CCN(S(=O)(=O)c4ccc(F)cc4)CC3)n2)cc1 [Compound 57, 1-[4-fluorophenylsulfonyl]-4-[3-(4-methylbenzyl)-1,2,4-thiadiazol-5-yl]piperazine] | 0.0104 (≈ 0.024 µM) | 88 | –
CCc1ccc(S(=O)(=O)N2CCN(c3nc(Cc4ccc(F)cc4)ns3)CC2)cc1 [Compound 197, 1-[4-ethylphenylsulfonyl]-4-[3-(4-fluoro-benzyl)-1,2,4-thiadiazol-5-yl]piperazine] | 0.239 (≈ 0.535 µM) | 84 | –
O=C(NCCN1CCN(c2nc(Cc3ccc(F)cc3)ns2)CC1)c1cc(Cl)cc(Cl)c1 [Compound 98, 3,5-dichloro-N-{2-[4-[3-(4-fluorobenzyl)-1,2,4-thiadiazol-5-yl]piperazin-1-yl]ethyl}benzamide] | 1.42 (≈ 2.87 µM) | 102 | –
CC1CN(c2nc(Cc3ccccc3)ns2)CCN1C(=O)c1cccc(F)c1 (centres unmarked) [Compound 150, 1-(3-fluorobenzoyl)-4-[3-benzyl-1,2,4-thiadiazol-5-yl]-2-methylpiperazine] | 1.14 (≈ 2.88 µM) | 99 | –
O=C(c1ccc(Cl)cc1)N1CCCN(c2nc(Cc3ccc(F)cc3)ns2)CC1 [Compound 189, 1-(4-chlorobenzoyl)-4-[3-(4-fluorobenzyl)-1,2,4-thiadiazol-5-yl]-1,4-diazepane] | 0.17 (≈ 0.394 µM) | 85 | –
COc1ccc(S(=O)(=O)N2CCN(c3nc(Cc4ccccc4)ns3)CC2)cc1 [Compound 199, 1-[4-methoxyphenylsulfonyl]-4-[3-benzyl-1,2,4-thiadiazol-5-yl]piperazine] | 0.0016 (≈ 0.00372 µM) | 38 | –
COc1cccc(Cc2nsc(N3CCN(C(=O)c4ccc(Br)cc4)C(C)C3)n2)c1 (centres unmarked) [Compound 170, 1-(4-bromobenzoyl)-4-[3-(3-methoxybenzyl)-1,2,4-thiadiazol-5-yl]-2-methylpiperazine] | – | 89 | –
O=C(c1ccc(F)cc1)N1CCN(c2nc(Cc3ccc(Cl)cc3)ns2)CC1 [Compound 153, 1-(4-fluorobenzoyl)-4-[3-(4-chlorobenzyl)-1,2,4-thiadiazol-5-yl]piperazine] | 1.44 (≈ 3.45 µM) | 53 | –
O=C(/C=C/c1ccccc1)N1CCN(c2nc(Cc3ccc(Cl)cc3)ns2)CC1 [Compound 88, 1-[(2E)-3-phenylprop-2-enoyl]-4-[3-(4-chlorobenzyl)-1,2,4-thiadiazol-5-yl]piperazine] | – | 72 | –
O=C(c1cc(Cl)cc(Cl)c1)N1CCN(c2nc(Cc3ccc(F)cc3)ns2)CC1 [Compound 137, 1-(3,5-dichlorobenzoyl)-4-[3-(4-fluorobenzyl)-1,2,4-thiadiazol-5-yl]piperazine] | 0.35 (≈ 0.775 µM) | 68 | –
Cc1ccc(C(=O)N2CCN(c3nc(Cc4ccc(F)cc4)ns3)CC2C)cc1[N+](=O)[O-] (centres unmarked) [Compound 172, 1-(3-nitro-4-methylbenzoyl)-4-[3-(4-fluorobenzyl)-1,2,4-thiadiazol-5-yl]-2-methylpiperazine] | – | 86 | –
O=C(NCCN1CCN(c2nc(Cc3ccc(F)cc3)ns2)CC1)NCc1ccccc1 [Compound 110, N-benzyl-N'-{2-[4-[3-(4-fluorobenzyl)-1,2,4-thiadiazol-5-yl]piperazin-1-yl]ethyl}urea] | – | 77 | –
CCc1ccc(C(=O)N2CCN(c3nc(Cc4ccc(C)cc4)ns3)CC2)cc1 [Compound 131, 1-(4-ethylbenzoyl)-4-[3-(4-methylbenzyl)-1,2,4-thiadiazol-5-yl]piperazine] | 0.25 (≈ 0.615 µM) | 91 | –
CC(C)(C)c1ccc(C(=O)N2CCN(c3nc(Cc4ccc(F)cc4)ns3)CC2)cc1 [Compound 180, 1-(4-tert-butylbenzoyl)-4-[3-(4-fluorobenzyl)-1,2,4-thiadiazol-5-yl]piperazine] | – | 62 | –
COc1ccc(NC(=O)N2CCN(c3nc(Cc4ccc(F)cc4)ns3)CC2)c(OC)c1 [Compound 27, N-(2,4-dimethoxyphenyl)-4-[3-(4-fluorobenzyl)-1,2,4-thiadiazol-5-yl]piperazine-1-carboxamide] | – | 67 | –
CCCCS(=O)(=O)N1CCN(c2nc(Cc3ccc(C)cc3)ns2)CC1 [Compound 83, 1-(butylsulfonyl)-4-[3-(4-methylbenzyl)-1,2,4-thiadiazol-5-yl]piperazine] | 2.64 (≈ 6.69 µM) | 36 | –

Compound | EC50 (10 point curves in duplicate) [µg/mL] | %I [%] | EC50 (µg/mL) (10 point curves in duplicate)
Cc1ccc(C(=O)N2CCCN(c3nc(Cc4ccc(F)cc4)ns3)CC2)cc1 [Compound 190, 1-(4-methylbenzoyl)-4-[3-(4-fluorobenzyt)-1,2,4-thiadiazol-5-yl]-1,4-diazepane] | 2.77 (≈ 6.75 µM) | 87 | –
CC1CN(c2nc(Cc3ccc(F)cc3)ns2)CCN1C(=O)c1ccccc1Br (centres unmarked) [Compound 148, 1-(2-bromobenzoyl)-4-[3-(4-fluorobenzyl)-1,2,4-thiadiazol-5-yl]-2-methylpiperazine] | 0.86 (≈ 1.81 µM) | 56 | –
COc1cccc(Cc2nsc(N3CCN(C(=O)c4ccccc4)C(C)C3)n2)c1 (centres unmarked) [Compound 173, 1-benzoyl-4-[3-(3-methoxybenzyl)-1,2,4-thiadiazol-5-yl]-2-methylpiperazine] | – | 85 | –
COc1cccc(Cc2nsc(N3CCN(C(=O)c4ccc5c(c4)OCO5)C(C)C3)n2)c1 (centres unmarked) [Compound 119, 1-(1,3-benzodioxol-5-ylcarbonyl)-4-[3-(3-methoxybenzyl)-1,2,4-thiadiazol-5-yl]-2-methylpiperazine] | 0.095 (≈ 0.21 µM) | 72 | –
CC1CN(c2nc(Cc3ccc(F)cc3)ns2)CCN1C(=O)c1cccc(C(F)(F)F)c1 (centres unmarked) [Compound 145, 1-(3-trifluoromethylbenzoyl)-4-[3-(4-fluorobenzyl)-1,2,4-thiadiazol-5-yl]-2-methylpiperazine] | 0.62 (≈ 1.33 µM) | 60 | –
CCc1ccc(NC(=O)N2CCN(c3nc(Cc4ccc(F)cc4)ns3)CC2C)cc1 (centres unmarked) [Compound 11, N-(4-ethylphenyl)-4-[3-(4-fluorobenzyl)-1,2,4-thiadiazol-5-yl]-2-methylpiperazine-1-carboxamide] | 0.69 (≈ 1.57 µM) | 73 | –
O=S(=O)(Cc1ccccc1)N1CCN(c2nc(Cc3ccc(Cl)cc3)ns2)CC1 [Compound 76, 1-(benzylsulfonyl)-4-[3-(4-chlorobenzyl)-1,2,4-thiadiazol-5-yl]piperazine] | – | 40 | –
O=C(Nc1ccc(F)c(F)c1)N1CCN(c2nc(Cc3ccc(F)cc3)ns2)CC1 [Compound 28, N-(3,4-difluorophenyl)-4-[3-(4-fluorobenzyl)-1,2,4-thiadiazol-5-yl]piperazine-1-carboxamide] | – | 64 | –
CC1CN(c2nc(Cc3ccc(F)cc3)ns2)CCN1C(=O)Cc1ccc(F)cc1 (centres unmarked) [Compound 6, 1-(4-fluorophenylacetyl)-4-[3-(4-fluorobenzyl)-1,2,4-thiadiazol-5-yl]-2-methylpiperazine] | – | 75 | –
N-(3-cyanophenyl)-4-[3-(4-fluorobenzyl)-1,2,4-thiadiazol-5-yl]-2-methylpiperazine-1-carboxamide [Compound 22] | – | 59 | 0,88 µg/mL
COc1cccc(Cc2nsc(N3CCN(C(=O)c4ccc(C(C)(C)C)cc4)C(C)C3)n2)c1 (centres unmarked) [Compound 146, 1-(4-tert-butylbenzoyl)-4-[3-(3-methoxybenzyl)-1,2,4-thiadiazol-5-yl]-2-methylpiperazine] | 0.72 (≈ 1.55 µM) | 94 | –
Cc1ccc(Cc2nsc(N3CCN(C(=O)c4ccc(F)cc4)C(C)C3)n2)cc1 (centres unmarked) [Compound 151, 1-(4-fluorobenzoyl)-4-[3-(4-methylbenzyl)-1,2,4-thiadiazol-5-yl]-2-methylpiperazine] | 1.14 (≈ 2.78 µM) | 73 | –
CC(C)(C)c1ccc(S(=O)(=O)N2CCN(c3nc(Cc4ccc(Cl)cc4)ns3)CC2)cc1 [Compound 69, 1-[4-tert-butylphenylsulfonyl]-4-[3-(4-chlorobenzyl)-1,2,4-thiadiazol-5-yl]piperazine] | – | 31 | –
O=C(c1cccc(Cl)c1)N1CCN(c2nc(Cc3ccc(F)cc3)ns2)CC1 [Compound 138, 1-(3-chlorobenzoyl)-4-[3-(4-fluorobenzyl)-1,2,4-thiadiazol-5-yl]piperazine] | 0.36 (≈ 0.863 µM) | 81 | –
COc1ccccc1S(=O)(=O)N1CCN(c2nc(Cc3ccc(F)cc3)ns2)CC1 [Compound 195, 1-[2-methoxyphenylsulfonyl]-4-[3-(4-fluoro-benzyl)-1,2,4-thiadiazol-5-yl]piperazine] | 0.025 (≈ 0.0557 µM) | 99 | –
CC(=O)Nc1ccc(S(=O)(=O)N2CCN(c3nc(Cc4ccc(F)cc4)ns3)CC2C)cc1 (centres unmarked) [Compound 55, 1-[4-acetamidophenylsulfonyl]-4-[3-(4-fluorobenzyl)-1,2,4-thiadiazol-5-yl]-2-methylpiperazine] | 0.0781 (≈ 0.16 µM) | 114 | –
Cc1ccc(Cc2nsc(N3CCN(C(=O)c4ccc(Cl)cc4)CC3)n2)cc1 [Compound 155, 1-(4-chlorobenzoyl)-4-[3-(4-methylbenzyl)-1,2,4-thiadiazol-5-yl]piperabine] | 1.64 (≈ 3.97 µM) | 76 | –
CC1CN(c2nc(Cc3ccc(Cl)cc3)ns2)CCN1C(=O)/C=C/c1ccccc1 (centres unmarked) [Compound 86, 1-[(2E)-3-phenylprop-2-enoyl]-4-[3-(4-chlorobenzyl)-1,2,4-thiadiazol-5-yl]-2-methylpiperazine] | 1.13 (≈ 2.57 µM) | 81 | –
